In brackets after ≈: the same amount, converted by molar mass. Activity calls are given as the source filed them. The calls are words filed in the database; no cut-off is given here.
Key:
[1] = test system: OVCAR-5; test: Cytotoxicity against human OVCAR5 cells; assay type: functional, cell-based
[2] = test system: OVCAR-8; test: Cytotoxicity against human OVCAR8 cells; assay type: functional, cell-based
[3] = test system: SK-OV-3; test: Cytotoxicity against human SK-OV-3 cells; assay type: functional, cell-based
[4] = test system: A498; test: Cytotoxicity against human A498 cells; assay type: functional
[5] = test system: ACHN; test: Cytotoxicity against human ACHN cells; assay type: functional, cell-based
[6] = test system: CAKI-1; test: Cytotoxicity against human CAKI1 cells; assay type: functional
[7] = test system: RXF 393; test: Cytotoxicity against human RXF393 cells; assay type: functional
[8] = test system: SN12C; test: Cytotoxicity against human SN12C cells; assay type: functional
[9] = test system: TK-10; test: Cytotoxicity against human TK10 cells; assay type: functional
[10] = test system: UO-31; test: Cytotoxicity against human UO31 cells; assay type: functional
[11] = test system: PC-3; test: Cytotoxicity against human PC3 cells; assay type: functional, cell-based; details: Homo sapiens, PC-3
[12] = Cytotoxicity against human MCF7/ADR-RES cells; assay type: functional; details: NCI/ADR-RES
[13] = Cytotoxicity against human RES MDA-MB-231/ATCC cells; assay type: functional
[14] = test system: MDA-MB-435; test: Cytotoxicity against human MDA-MB-435 cells; assay type: functional
[15] = test system: MDA-N; test: Cytotoxicity against human MDA-N cells; assay type: functional
[16] = test system: BT-549; test: Cytotoxicity against human BT-549 cells; assay type: functional
[17] = test system: T47D; test: Cytotoxicity against human T47D cells; assay type: functional
[18] = test system: A549; test: Cytotoxicity against human A549 cells; assay type: functional, cell-based; details: Homo sapiens, A549
[19] = test system: HCT-116; test: Cytotoxicity against human HCT116 cells; assay type: functional, cell-based
[20] = test system: MCF7; test: Cytotoxicity against human MCF7 cells; assay type: functional, cell-based; details: Homo sapiens, MCF7
[21] = test system: NCI-H460; test: Cytotoxicity against human NCI-H460 cells; assay type: functional, cell-based; details: Homo sapiens, NCI-H460
[22] = test system: DU-145; test: Cytotoxicity against human DU145 cells; assay type: functional, cell-based; details: Homo sapiens, DU-145; read-out: GI50
[23] = test system: 786-0; test: Cytotoxicity against human renal 7860 cells by soft agar assay; assay type: functional
[24] = Cytotoxicity against human CFUGM; assay type: functional; details: CFU-GM
[25] = Cytotoxicity against mouse Ehrlich Ascites carcinoma by clonogenic assay; assay type: functional
[26] = Cytotoxicity against mouse Ehrlich Ascites carcinoma by […] assay; assay type: functional
[27] = Cytotoxicity against human CCRF-GEM cells; assay type: functional
[28] = Cytotoxicity against human HB60 cells; assay type: functional
[29] = Cytotoxicity against human K652 cells; assay type: functional
[30] = test system: MOLT-4; test: Cytotoxicity against human MOLT4 cells
[31] = Cytotoxicity against human RPMI8266 cells; assay type: functional
[32] = test system: EKVX; test: Cytotoxicity against human EKVX cells; assay type: functional
[33] = test system: HOP-62; test: Cytotoxicity against human HOP62 cells; assay type: functional
[34] = test system: HOP-92; test: Cytotoxicity against human HOP92 cells; assay type: functional
[35] = test system: NCI-H23; test: Cytotoxicity against human NCI-H23 cells; assay type: functional, cell-based
[36] = test system: NCI-H322M; test: Cytotoxicity against human NCI-H322M cells; assay type: functional
[37] = test system: COLO 205; test: Cytotoxicity against human COLO205 cells
[38] = test system: HCC 2998; test: Cytotoxicity against human HCC2998 cells; assay type: functional, cell-based
[39] = test system: HCT-15; test: Cytotoxicity against human HCT15 cells; assay type: functional, cell-based
[40] = test system: HT-29; test: Cytotoxicity against human HT29 cells; assay type: functional
[41] = test system: KM12; test: Cytotoxicity against human KM12 cells; assay type: functional, cell-based
[42] = test system: SW-620; test: Cytotoxicity against human SW620 cells; assay type: functional
[43] = test system: SF-295; test: Cytotoxicity against human SF295 cells; assay type: functional, cell-based
[44] = test system: SNB-19; test: Cytotoxicity against human SNB19 cells; assay type: functional
[45] = test system: SNB-75; test: Cytotoxicity against human SNB75 cells; assay type: functional, cell-based
[46] = test system: U-251; test: Cytotoxicity against human U251 cells; assay type: functional, cell-based
[47] = test system: LOX IMVI; test: Cytotoxicity against human LOXI MVI cells; assay type: functional, cell-based
[48] = test system: SK-MEL-5; test: Cytotoxicity against human SK-MEL-5 cells; assay type: functional
[49] = test system: SK-MEL-2; test: Cytotoxicity against human SK-MEL-2 cells; assay type: functional
[50] = test system: SK-MEL-28; test: Cytotoxicity against human SK-MEL-28 cells; assay type: functional
[51] = test system: UACC-257; test: Cytotoxicity against human UACC257 cells; assay type: functional
[52] = test system: UACC-62; test: Cytotoxicity against human UACC62 cells; assay type: functional
[53] = test system: IGROV-1; test: Cytotoxicity against human IGROV1 cells; assay type: functional
[54] = test system: OVCAR-3; test: Cytotoxicity against human OVCAR-3 cells; assay type: functional, cell-based
[55] = test system: OVCAR-4; test: Cytotoxicity against human OVCAR4 cells; assay type: functional, cell-based
[56] = Cytotoxicity against human Hepa59T/VGH cells; assay type: functional; details: HEPA 59T/VGH, read-out: ED50 (the source's name)
[57] = Inhibition of human SKW3 cells adhesion to soluble ICAM1; assay type: functional, cell-based
[58] = test system: SF-268; test: Cytotoxicity against human SF268 cells; assay type: functional, cell-based; details: sf-268
[59] = test system: HeLa; test: Cytotoxicity against human HeLa cells; assay type: functional, cell-based
[60] = test system: MIA PaCa-2; test: Cytotoxicity against human MIA-PaCa2 cells
[61] = test system: SF-268; test: Cytotoxicity against human SF268 cells at 30 uM; assay type: functional, cell-based
[62] = test system: P388; test: Cytotoxicity against mouse P388 cells at 0.5 ug/mL; assay type: functional
[63] = test system: HCT-8; test: Cytotoxicity against human HCT8 cells at 10 ug/mL; assay type: functional
[64] = Cytotoxicity against human Bel-7721 cells; assay type: functional, cell-based
[65] = Cytotoxicity against human Anip-973 cells; assay type: functional, cell-based
[66] = test system: P388; test: Cytotoxicity against mouse P388 cells; assay type: functional, cell-based; details: Mus musculus, P388; read-out: ED50 (the source's name)
[67] = Cytotoxicity against human KB16 cells; assay type: functional, cell-based
[68] = test system: EL4; test: Cytotoxicity against […] cells; assay type: functional, cell-based; details: Mus musculus
[69] = target: Protein kinase C epsilon type (Homo sapiens, UniProt Q02156); test: Antagonist activity at protein kinase C epsilon; assay type: functional
Protein kinase C epsilon type, sequence (Q02156 whole entry): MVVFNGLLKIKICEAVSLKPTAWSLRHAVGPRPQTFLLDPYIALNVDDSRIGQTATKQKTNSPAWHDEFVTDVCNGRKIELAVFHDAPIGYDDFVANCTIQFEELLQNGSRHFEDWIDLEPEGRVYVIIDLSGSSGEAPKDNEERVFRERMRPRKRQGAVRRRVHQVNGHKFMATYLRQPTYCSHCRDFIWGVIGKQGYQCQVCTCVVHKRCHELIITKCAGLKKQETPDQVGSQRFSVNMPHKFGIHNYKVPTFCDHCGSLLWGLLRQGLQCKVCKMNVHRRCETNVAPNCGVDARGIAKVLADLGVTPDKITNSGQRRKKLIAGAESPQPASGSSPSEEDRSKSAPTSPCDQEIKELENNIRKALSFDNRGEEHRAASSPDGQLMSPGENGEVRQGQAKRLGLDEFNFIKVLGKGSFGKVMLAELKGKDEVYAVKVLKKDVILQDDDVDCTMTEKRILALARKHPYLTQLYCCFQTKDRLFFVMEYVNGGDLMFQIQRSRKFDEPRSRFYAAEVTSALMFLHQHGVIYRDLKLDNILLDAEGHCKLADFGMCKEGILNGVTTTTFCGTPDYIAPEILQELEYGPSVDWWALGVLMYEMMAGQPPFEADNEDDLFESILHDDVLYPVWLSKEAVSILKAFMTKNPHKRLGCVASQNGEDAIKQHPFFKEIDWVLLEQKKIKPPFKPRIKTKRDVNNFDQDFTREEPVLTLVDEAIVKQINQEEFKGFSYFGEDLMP

[70] = target: Protein kinase C gamma type (Homo sapiens, UniProt P05129); test: Antagonist activity at protein kinase C gamma; assay type: functional
[71] = target: Protein kinase C zeta type (Homo sapiens, UniProt Q05513); test: Antagonist activity at protein kinase C zeta; assay type: functional
Protein kinase C zeta type, sequence (Q05513 whole entry): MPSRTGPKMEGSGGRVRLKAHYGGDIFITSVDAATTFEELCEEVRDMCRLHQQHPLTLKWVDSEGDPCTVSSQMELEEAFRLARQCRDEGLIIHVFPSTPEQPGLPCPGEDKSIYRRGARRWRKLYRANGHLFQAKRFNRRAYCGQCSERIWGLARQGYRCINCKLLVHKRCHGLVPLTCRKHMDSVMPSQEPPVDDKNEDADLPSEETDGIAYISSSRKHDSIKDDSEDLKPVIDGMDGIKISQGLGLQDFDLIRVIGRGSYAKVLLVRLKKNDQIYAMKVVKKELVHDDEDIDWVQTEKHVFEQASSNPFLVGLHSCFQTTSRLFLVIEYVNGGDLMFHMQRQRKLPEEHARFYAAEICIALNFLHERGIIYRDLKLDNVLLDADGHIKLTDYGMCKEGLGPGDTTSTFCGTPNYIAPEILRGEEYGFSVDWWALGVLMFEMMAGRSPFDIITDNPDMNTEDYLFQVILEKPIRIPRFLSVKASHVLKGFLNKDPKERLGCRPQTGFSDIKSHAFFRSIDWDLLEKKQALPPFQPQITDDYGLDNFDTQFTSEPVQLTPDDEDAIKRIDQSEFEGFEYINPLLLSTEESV

[72] = test system: P388; test: Cytotoxicity against mouse P388 cells at 0.05 ug/ml; assay type: functional
[73] = test system: SNU1; test: Cytotoxicity against human SNU1 cells; assay type: functional, cell-based
[74] = test system: SNU-354; test: Cytotoxicity against human SNU354 cells; assay type: functional, cell-based
[75] = Cytotoxicity against human SNUC4 cells; assay type: functional, cell-based; details: SNU-C4
[76] = Cytotoxicity against mouse sarcoma 180 cells; assay type: functional, cell-based
[77] = target: Aldo-keto reductase family 1 member B1 (Rattus norvegicus, UniProt P07943); test: Inhibition of rat lens aldose reductase
[78] = test system: Candida albicans; test: Antifungal activity against Candida albicans; assay type: functional
[79] = test system: Aspergillus fumigatus; test: Antifungal activity against Aspergillus fumigatus; assay type: functional

C[C@H]1[C@H](O[C@@H]2O[C@@H]3O[C@]4(C)CC[C@H]5[C@H](C)CC[C@@H]([C@H]2C)[C@@]35OO4)O[C@@H]2O[C@]3(C)CC[C@H]4[C@H](C)CC[C@@H]1[C@@]24OO3
GI50 [1]: 390 nM | GI50 [2]: 90 nM | GI50 [3]: 480 nM | GI50 [4]: 11600 nM | GI50 [5]: 100 nM | GI50 [6]: 280 nM | GI50 [7]: 470 nM | GI50 [8]: 280 nM | GI50 [9]: 240 nM | GI50 [10]: 63 nM | GI50 [11]: 15 nM | GI50 [12]: 220 nM | GI50 [13]: 400 nM | GI50 [14]: 61 nM | GI50 [15]: 590 nM | GI50 [16]: 58 nM | GI50 [17]: 30 nM | GI50 [18]: 98 nM | GI50 [19]: 19 nM | GI50 ([20]; read-out: GI50): 110 nM | GI50 ([21]; read-out: GI50): 68 nM | GI50 [22]: 5100 nM | GI50 [23]: 370 nM | IC50 [24]: 3600 nM | IC50 [25]: 55600 nM | IC50 [26]: 3600 nM | GI50 [27]: 45 nM | GI50 [28]: 28 nM | GI50 [29]: 68 nM | GI50 [30]: 57 nM | GI50 [31]: 13 nM | GI50 [32]: 76 nM | GI50 [33]: 10200 nM | GI50 [34]: 121 nM | GI50 [35]: 46 nM | GI50 [36]: 10800 nM | GI50 [37]: 44 nM | GI50 [38]: 450 nM | GI50 [39]: 24 nM | GI50 [40]: 50 nM | GI50 [41]: 33 nM | GI50 [42]: 43 nM | GI50 [43]: 590 nM | GI50 [44]: 1710 nM | GI50 [45]: 220 nM | GI50 [46]: 65 nM | GI50 [47]: 30 nM | GI50 [48]: 53 nM | GI50 [49]: 500 nM | GI50 [50]: 12300 nM | GI50 [51]: 93 nM | GI50 [52]: 81 nM | GI50 [53]: 1050 nM | GI50 [54]: 460 nM | GI50 [55]: 290 nM

CC(C)[C@]12C=C3[C@](C)(O)CC[C@]3(OO1)[C@@H](C)CC2 [PEROXYGIBBEROL]
EC50 [56]: 8.2 µg/mL (≈ 32.5 µM)

Cc1ccc2c(c1O)C(=O)c1c(cc(O)c(C(=O)O)c1C)[C@]2(C)OO[C@@]1(C)c2cc(O[C@H]3O[C@@H](CO)[C@@H](O)[C@@H](O[C@@H]4O[C@H](CO)[C@H](O)[C@H](O)[C@H]4O)[C@@H]3O)c(C(=O)O)c(C)c2C(=O)c2c1ccc(C)c2O [ADXANTHROMYCIN B]
IC50 [57]: 25 µg/mL (≈ 25.5 µM)

CC(=C/C(=O)O)/C=C/C=C(C)/C=C/[C@@H]1C=C2C(C)(C)CCC[C@]2(C)OO1
IC50 [20]: 21.9 µg/mL (≈ 61.1 µM) | IC50 [58]: Not Active | IC50 [21]: 21 µg/mL (≈ 58.6 µM) | IC50 [59]: 19.8 µg/mL (≈ 55.2 µM) | IC50 [60]: 13.9 µg/mL (≈ 38.8 µM) | Activity [61]: inactive

CCCCCCCCCCCCCCC[C@]1(C)C[C@](C)(CC(=O)O)OO1
inhibition at 0.5 µg/mL [62]: 90% | inhibition at 10 µg/mL [63]: 90%

COC1=CC(=O)c2c(O)c(OC)c3c(c2C1=O)-c1c2c(c(O)c(OC)c1[C@@H](C(C)=O)[C@@](C)(O)C3)C(=O)C=C(OC)C2=O [HYPOCRELLIN D]
IC50 [18]: 8.8 µg/mL (≈ 15.2 µM) | IC50 [64]: 1.8 µg/mL (≈ 3.11 µM) | IC50 [65]: 38.4 µg/mL (≈ 66.4 µM)

CCCCCCCCCCCCCCCC[C@@]1(OC)C=C[C@@H](CC(=O)OC)OO1 [CHONDRILLIN]
EC50 [66]: > 10 µg/mL | IC50 [67]: 0.74 µg/mL (≈ 1.79 µM) | IC50 [68]: 0.4 µg/mL (≈ 0.969 µM) | IC50 [69]: 72700 nM | IC50 [70]: > 364000 nM | IC50 [71]: 104000 nM | inhibition at 0.05 µg/mL [72]: 50%

CC(C)[C@@H](C)/C=C/[C@@H](C)[C@H]1CC[C@@H]2[C@]1(C)CC[C@H]1[C@]23C=C[C@]2(C[C@@H](O)CC[C@]12C)OO3 [ERGOSTEROL PEROXIDE]
IC50 [73]: 18700 nM | IC50 [74]: 158000 nM | IC50 [75]: 84600 nM | IC50 [76]: 74100 nM | IC50 [77]: 35900 nM

CC/C=C/C(CC)C/C=C/[C@@]1(CC)C[C@H](CC)[C@@H](CC(=O)O)OO1 (some centres not stated)
MIC [78]: 5 µg/mL (≈ 14.8 µM) | IC90 [79]: 5.6 µg/mL (≈ 16.5 µM)
